Data from PubChem BioAssay (NCI).
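Test compounds were applied to cells in 96-well plates for 48 hours at 5 doses. GI50 marks 50% less growth. TGI is the concentration that stops growth completely.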

Legend:
Experiment in all cases: growth of human tumour cells (NCI), 48 h
IGROV1 ovarian = tested on: IGROV1 ovarian
LOX IMVI melanoma = tested on: LOX IMVI melanoma
OVCAR-5 ovarian = tested on: OVCAR-5 ovarian
OVCAR-4 ovarian = tested on: OVCAR-4 ovarian
MDA-MB-231 breast = tested on: MDA-MB-231 breast
RXF 393 renal = tested on: RXF 393 renal
K-562 leukemia = tested on: K-562 leukemia
OVCAR-3 ovarian = tested on: OVCAR-3 ovarian
SF-295 CNS = tested on: SF-295 CNS
HOP-62 NSCLC = tested on: HOP-62 NSCLC
CCRF-CEM leukemia = tested on: CCRF-CEM leukemia
UACC-62 melanoma = tested on: UACC-62 melanoma
TK-10 renal = tested on: TK-10 renal
ACHN renal = tested on: ACHN renal
HCT-15 colon = tested on: HCT-15 colon
PC-3 prostate = tested on: PC-3 prostate
SK-MEL-5 melanoma = tested on: SK-MEL-5 melanoma
KM12 colon = tested on: KM12 colon
SN12C renal = tested on: SN12C renal
HOP-92 NSCLC = tested on: HOP-92 NSCLC
EKVX NSCLC = tested on: EKVX NSCLC
T-47D breast = tested on: T-47D breast
UACC-257 melanoma = tested on: UACC-257 melanoma
NCI-H23 lung = tested on: NCI-H23 lung
NCI/ADR-RES ovarian = tested on: NCI/ADR-RES ovarian
M14 melanoma = tested on: M14 melanoma
NCI-H460 lung = tested on: NCI-H460 lung
786-0 renal = tested on: 786-0 renal
MOLT-4 leukemia = tested on: MOLT-4 leukemia
NCI-H226 lung = tested on: NCI-H226 lung
HT29 colon = tested on: HT29 colon
SF-539 CNS = tested on: SF-539 CNS
SNB-19 CNS = tested on: SNB-19 CNS
A498 renal = tested on: A498 renal
SK-MEL-28 melanoma = tested on: SK-MEL-28 melanoma
U251 CNS = tested on: U251 CNS
HCT-116 colon = tested on: HCT-116 colon
SF-268 CNS = tested on: SF-268 CNS
MDA-MB-435 = tested on: MDA-MB-435
MCF7 breast = tested on: MCF7 breast
HS 578T breast = tested on: HS 578T breast
SK-MEL-2 melanoma = tested on: SK-MEL-2 melanoma
SR leukemia = tested on: SR leukemia
HCC-2998 colon = tested on: HCC-2998 colon
MALME-3M melanoma = tested on: MALME-3M melanoma
SK-OV-3 ovarian = tested on: SK-OV-3 ovarian
RPMI-8226 leukemia = tested on: RPMI-8226 leukemia
NCI-H522 lung = tested on: NCI-H522 lung
A549 NSCLC = tested on: A549 NSCLC
CAKI-1 renal = tested on: CAKI-1 renal
DU-145 prostate = tested on: DU-145 prostate
SW-620 colon = tested on: SW-620 colon
UO-31 renal = tested on: UO-31 renal
BT-549 breast = tested on: BT-549 breast
SNB-75 CNS = tested on: SNB-75 CNS
COLO 205 colon = tested on: COLO 205 colon
OVCAR-8 ovarian = tested on: OVCAR-8 ovarian

## N#Cc1ccc(N2Cc3cc(Cl)ccc3OC3=C2C(=O)N(Cc2ccccc2)C3=O)cc1
IGROV1 ovarian
  GI50: 2.19 µM
  TGI: 4.88 µM
LOX IMVI melanoma
  GI50: 1.47 µM
  TGI: 2.85 µM
OVCAR-5 ovarian
  GI50: 1.96 µM
  TGI: 4.08 µM
OVCAR-4 ovarian
  GI50: 1.41 µM
  TGI: 3.26 µM
MDA-MB-231 breast
  GI50: 1.74 µM
  TGI: 3.99 µM
RXF 393 renal
  GI50: 1.54 µM
  TGI: 3.05 µM
K-562 leukemia
  GI50: 0.359 µM
  TGI: 2.02 µM
OVCAR-3 ovarian
  GI50: 0.442 µM
  TGI: 1.54 µM
SF-295 CNS
  GI50: 5.22 µM
  TGI: 20.4 µM
HOP-62 NSCLC
  GI50: 2.35 µM
  TGI: 6.12 µM
CCRF-CEM leukemia
  GI50: 0.226 µM
  TGI: 0.827 µM
UACC-62 melanoma
  GI50: 1.26 µM
  TGI: 2.86 µM
TK-10 renal
  GI50: 1.45 µM
  TGI: 2.77 µM
ACHN renal
  GI50: 0.87 µM
  TGI: 2.2 µM
HCT-15 colon
  GI50: 0.628 µM
  TGI: 2.95 µM
PC-3 prostate
  GI50: 1.41 µM
  TGI: 3.52 µM
SK-MEL-5 melanoma
  GI50: 1.84 µM
  TGI: 3.51 µM
KM12 colon
  GI50: 2.7 µM
  TGI: 8.01 µM
SN12C renal
  GI50: 1.51 µM
  TGI: 3.14 µM
HOP-92 NSCLC
  GI50: 1.45 µM
  TGI: 3.09 µM
EKVX NSCLC
  GI50: 2.02 µM
  TGI: 4.92 µM
T-47D breast
  GI50: 0.714 µM
  TGI: 2.58 µM
UACC-257 melanoma
  GI50: 1.35 µM
  TGI: 2.85 µM
NCI-H23 lung
  GI50: 2.14 µM
  TGI: 5.34 µM
NCI/ADR-RES ovarian
  GI50: 2.69 µM
  TGI: 11.4 µM
M14 melanoma
  GI50: 1.49 µM
  TGI: 3.68 µM
NCI-H460 lung
  GI50: 2.09 µM
  TGI: 4.52 µM
786-0 renal
  GI50: 1.92 µM
  TGI: 3.44 µM
MOLT-4 leukemia
  GI50: 0.25 µM
  TGI: 0.818 µM
NCI-H226 lung
  GI50: 1.93 µM
  TGI: 6.78 µM
HT29 colon
  GI50: 1.58 µM
  TGI: 3.96 µM
SF-539 CNS
  GI50: 1.7 µM
  TGI: 3.19 µM
SNB-19 CNS
  GI50: 3.32 µM
  TGI: 11.7 µM
A498 renal
  GI50: 1.83 µM
  TGI: 3.96 µM
SK-MEL-28 melanoma
  GI50: 1.62 µM
  TGI: 3.41 µM
U251 CNS
  GI50: 1.56 µM
  TGI: 2.98 µM
HCT-116 colon
  GI50: 0.284 µM
  TGI: 1.25 µM
SF-268 CNS
  GI50: 1.75 µM
  TGI: 3.89 µM
MDA-MB-435
  GI50: 1.34 µM
  TGI: 3.27 µM
MCF7 breast
  GI50: 0.769 µM
  TGI: 4.72 µM
HS 578T breast
  GI50: 2.62 µM
  TGI: 9.25 µM
SK-MEL-2 melanoma
  GI50: 2.08 µM
  TGI: 4.51 µM
SR leukemia
  GI50: 0.242 µM
  TGI: 0.828 µM
HCC-2998 colon
  GI50: 1.89 µM
  TGI: 3.65 µM
MALME-3M melanoma
  GI50: 1.44 µM
  TGI: 3.08 µM
SK-OV-3 ovarian
  GI50: 10.9 µM
  TGI: 31.5 µM
RPMI-8226 leukemia
  GI50: 0.28 µM
  TGI: 1.06 µM
NCI-H522 lung
  GI50: 0.25 µM
  TGI: 0.62 µM
A549 NSCLC
  GI50: 10.1 µM
  TGI: 26.7 µM
CAKI-1 renal
  GI50: 1.39 µM
  TGI: 2.78 µM
DU-145 prostate
  GI50: 1.48 µM
  TGI: 2.82 µM
SW-620 colon
  GI50: 0.278 µM
  TGI: 0.971 µM
UO-31 renal
  GI50: 1.32 µM
  TGI: 2.61 µM
BT-549 breast
  GI50: 1.6 µM
  TGI: 3.3 µM
SNB-75 CNS
  GI50: 1.24 µM
  TGI: 2.53 µM
COLO 205 colon
  GI50: 1.21 µM
  TGI: 2.92 µM

## COc1ccc(-n2nc(C)c3c2N(C)C2(C)C[C@@H]4C3(C)[C@@H]3CC4(C2)N(C)c2c(c(C)nn2-c2ccc(OC)cc2)[C@H]3C)cc1 (stereo partly drawn)
IGROV1 ovarian
  GI50: 19.5 µM
  TGI: > 100 µM
OVCAR-5 ovarian
  GI50: > 100 µM
  TGI: > 100 µM
OVCAR-4 ovarian
  GI50: 5.95 µM
  TGI: > 100 µM
MDA-MB-231 breast
  GI50: 6.35 µM
  TGI: 48.3 µM
RXF 393 renal
  GI50: 2.92 µM
  TGI: 13.3 µM
OVCAR-3 ovarian
  GI50: 7.14 µM
  TGI: > 100 µM
HOP-62 NSCLC
  GI50: 3.1 µM
  TGI: 10.5 µM
UACC-62 melanoma
  GI50: 12.6 µM
  TGI: > 100 µM
TK-10 renal
  GI50: 4.77 µM
  TGI: 21.3 µM
ACHN renal
  GI50: 6.13 µM
  TGI: > 100 µM
SN12C renal
  GI50: 8.06 µM
  TGI: > 100 µM
T-47D breast
  GI50: 2.44 µM
  TGI: 81.9 µM
NCI-H23 lung
  GI50: 18.7 µM
  TGI: 99.9 µM
NCI/ADR-RES ovarian
  GI50: 8.03 µM
  TGI: > 100 µM
NCI-H460 lung
  GI50: 3.69 µM
  TGI: > 100 µM
786-0 renal
  GI50: 5.47 µM
  TGI: 29.6 µM
NCI-H226 lung
  GI50: 5.34 µM
  TGI: > 100 µM
HT29 colon
  GI50: 3.39 µM
  TGI: > 100 µM
SF-539 CNS
  GI50: 6.49 µM
  TGI: > 100 µM
OVCAR-8 ovarian
  GI50: 4.19 µM
  TGI: 92.7 µM
SNB-19 CNS
  GI50: 4.45 µM
  TGI: 86.3 µM
A498 renal
  GI50: 3.95 µM
  TGI: 26.9 µM
SK-MEL-28 melanoma
  GI50: 15.2 µM
  TGI: > 100 µM
U251 CNS
  GI50: 3.94 µM
  TGI: 22.5 µM
HCT-116 colon
  GI50: 2.09 µM
  TGI: > 100 µM
SF-268 CNS
  GI50: 4.08 µM
  TGI: 70.2 µM
MCF7 breast
  GI50: 4.02 µM
  TGI: > 100 µM
HS 578T breast
  GI50: 4.27 µM
  TGI: 98 µM
SK-MEL-2 melanoma
  GI50: 7.29 µM
  TGI: 23.3 µM
HCC-2998 colon
  GI50: 9.65 µM
  TGI: > 100 µM
MALME-3M melanoma
  GI50: 6.34 µM
  TGI: > 100 µM
SK-OV-3 ovarian
  GI50: 2.53 µM
  TGI: 9.54 µM
NCI-H522 lung
  GI50: 0.891 µM
  TGI: 6.94 µM
A549 NSCLC
  GI50: 3.29 µM
  TGI: > 100 µM
DU-145 prostate
  GI50: 23 µM
  TGI: > 100 µM
BT-549 breast
  GI50: 4.17 µM
  TGI: > 100 µM

## CC(C)(C)c1cc(C(=O)Nc2cc3ccccc3cc2C(=O)NCCN)cc(C(C)(C)C)c1
OVCAR-4 ovarian
  GI50: 1.24 µM
  TGI: 2.7 µM
SK-MEL-5 melanoma
  GI50: 1.65 µM
  TGI: 3.17 µM
HOP-92 NSCLC
  GI50: 0.146 µM
  TGI: 0.396 µM
UACC-257 melanoma
  GI50: 2.35 µM
  TGI: 4.98 µM
HS 578T breast
  GI50: 1.65 µM
  TGI: 4.57 µM
CAKI-1 renal
  GI50: 1.13 µM
  TGI: 2.44 µM
DU-145 prostate
  GI50: 0.374 µM
  TGI: 1.29 µM
